US8372839B2, “Bipartite inhibitors of bacterial RNA polymerase” (priority 2005, dated 2013)
Starred links: 1 amine or outer side, 2 acyl side, 3 side chain; linkers in the order of their positions; H or OH if unused. Positions of bridges follow the written chain, without caps; N, C: chain ends. Non-standard residues stand in square brackets, D forms with d. Residues, ends and D or L forms follow the SMILES beside them. *: point of attachment. X2 = CO[C@H]1/C=C/O[C@@]2(C)Oc3c(C)c(O)c4c(O)c(cc(OCC(=O)NCCCCCCCCCCCCN*)c4c3C2=O)NC(=O)/C(C)=C\C=C\[C@H](C)[C@H](O)[C@@H](C)[C@@H](O)[C@@H](C)[C@H](OC(C)=O)[C@@H]1C; X1 = N=C(CCCSCC(=O)[*:3])NCCCC[C@H](N[*:1])C(=O)[*:2]

Experiments:
Escherichia coli RNAP = molecular target: T1, Escherichia coli RNAP (Escherichia coli, UniProt P0A8T7+P0A8V2); test: biochemical; format: biochemical; details: for inhibition of transcription (in words): transcription assay, RNAP and [Asn516]β-RNAP
T1 construct: made in house
Experimental: RNAP was prepared as described in Niu, et al. (1996) Cell 87, 1123-1134. [Asn516]β-RNAP, a strongly rifamycin-resistant RNAP derivative (see Jin, et al. (1988) J. Mol. Biol. 202, 45-58) was prepared in the same manner, except that plasmid pRL706-516N was used in place of plasmid pREII-NHα. [Plasmid pRL706-516N, which encodes C-terminally hexahistidine tagged [Asn516]β, was constructed from plasmid pRL706 (Severinov, et al. (1997) J. Biol. Chem. 272, 24137-24140) by use of site-directed mutagenesis (QuikChange Site-Directed Mutagenesis Kit; Stratagene).]
RNAP or [Asn516]β-RNAP (3 fmol; Example 3.1) and each test compound (250 fmol-100 pmol) were pre-equilibrated 30 min at 37° C. in 15 μl buffer A (50 mM Tris-HCl, pH 8.0, 100 mM KCl, 10 mM MgCl2, 1 mM dithiothreitol, 10 ug/ml bovine serum albumin, and 5% glycerol). To the reaction mixture, was added 1 μl of 1 μM DNA fragment comprising positions −60 to +46 of the bacteriophage T5 N25 promoter (1 pmol; prepared as in Revyakin, et al. (2006) Science, in press), and, following incubation 15 min at 37° C., RNA synthesis was initiated by addition of […] of 6.7 mM ATP and 30 μM α[^32P]-UTP (0.6 Bq/fmol). Following 10 min at 37° C., the reaction was terminated by addition of 10/j 80% formamide, 10 mM EDTA, 0.04% bromophenol blue, and 0.04% xylene cyanol. Reaction products were heated […] at 90° C. and were analyzed by urea-PAGE (Sambrook, et al. (2001) Molecular Cloning: A Laboratory Manual, CSHL Press, Cold Spring Harbor, N.Y.), and quantified using a storage-phosphor scanner.

[1] = tested on: Escherichia coli strain D21 f2/tolC; test: Susceptibility assay (spot on top agar); format: cell-based; details: for lowest concentration of test compound solution resulting in detectable inhibition of bacterial growth: 2.5 μl aliquots spotted, 12 h at 37° C.
Experimental: Aliquots (2.5 μl) of 1.56, 3.12, 6.25, 12.5, 25, 50, 100, 200, and 400 μM solutions of a test compound were spotted on plates containing Escherichia coli strain D21 f2/tolC (Fralick, et al. (1994) J. Bacteriol. 176, 6404-6406; ˜10^8 cells) in LB top agar (Sambrook, et al. (2001) Sambrook, et al. (2001) Molecular Cloning. A Laboratory Manual, CSHL Press, Cold Spring Harbor, N.Y.; 3.5 ml) overlaid on LB agar (Sambrook, et al. (2001) Sambrook, et al. (2001) Molecular Cloning: A Laboratory Manual, CSHL Press, Cold Spring Harbor, N.Y.; 25 ml).

[Asn516]β-RNAP = [Asn516]β-RNAP (Escherichia coli, UniProt P0A8T7+P0A8V2, D516N)
Experimental: Following 10 min at 37° C., the reaction was terminated by addition of 10/j 80% formamide, 10 mM EDTA, 0.04% bromophenol blue, and 0.04% xylene cyanol.

Row | Compound | inhibition of transcription (in words) (Escherichia coli RNAP) | lowest concentration of test compound solution resulting in detectable inhibition of bacterial growth [1] | further results
1 | CC[C@H](C)[C@H](NC(=O)CNC(=O)[C@@H](NC(=O)[C@H](Cc1ccccc1)NC(=O)[C@H](Cc1ccc(O)cc1)NC(=O)[C@@H]1CCC(=O)NCC(=O)NCC(=O)N[C@@H](C)C(=O)NCC(=O)N[C@@H](CCCCNC(=N)CCCSCC(=O)NCCCCCCCCCCCCNC(=O)COc2cc3c(O)c4c(O)c(C)c5c(c24)C(=O)[C@@](C)(O/C=C/[C@H](OC)[C@@H](C)[C@@H](OC(C)=O)[C@H](C)[C@H](O)[C@H](C)[C@@H](O)[C@@H](C)/C=C/C=C(/C)C(=O)N3)O5)C(=O)N[C@@H](C(C)C)C(=O)N2CCC[C@H]2C(=O)N1)C(C)C)C(=O)NCC(=O)N[C@H](C(=O)N1CCC[C@H]1C(=O)N[C@H](C(=O)N[C@@H](CO)C(=O)N[C@@H](Cc1ccccc1)C(=O)N[C@@H](Cc1ccc(O)cc1)C(=O)NCC(=O)O)[C@@H](C)CC)[C@@H](C)O [rifamicrocin 1-12, {rifamycin SV}—{CH2C(O)NH(CH2)12NHC(O)CH2S(CH2)3C(NH2^+)}-{[Lys5]microcin J25}] (GGAG[X1](X2)VPEYFVGIGTPISFYG-OH; lactam N-8 (inferred); C-terminus assumed) | potently to inhibit transcription |  | IC50 (Escherichia coli RNAP): 2 nM
2 | CO[C@H]1/C=C/O[C@@]2(C)Oc3c(C)c([O-])c4c(O)c(cc(O)c4c3C2=O)NC(=O)/C(C)=C\C=C\[C@H](C)[C@H](O)[C@@H](C)[C@@H](O)[C@@H](C)[C@H](OC(C)=O)[C@@H]1C.[Na+] [rifamycin SV, reference compound] |  | 50 µM | 
3 | {Rifamycin SV}—{CH2C(O)NH(CH2)nNHC(O)CH2S(CH2)3C(NH2^+)}-{[Lys5]MccJ25} [rifamicrocin 1-6] | potently to inhibit transcription |  | 
4 | {Rifamycin SV}—{CH2C(O)NH(CH2)nNHC(O)CH2S(CH2)3C(NH2^+)}-{[Lys5]MccJ25} [rifamicrocin 1-8] | potently to inhibit transcription |  | 
5 | {Rifamycin SV}—{CH2C(O)NH(CH2)nNHC(O)CH2S(CH2)3C(NH2^+)}-{[Lys5]MccJ25} [rifamicrocin 1-10] | potently to inhibit transcription | 12.5 µM | potency on bacterial growth relative to rifamycin SV ([1]; vs rifamycin SV): ~4 times higher
6 | {rifamycin SV}—{CH2C(O)NH(CH2)10NHC(O)(CH2)2(C2N3)(CH2)4C(O)}-{[Lys5]microcin J25} [rifamicrocin 2-10] | potently to inhibit transcription |  | potency relative to prior-art rifamycin B, [Asn516]β-RNAP ([Asn516]β-RNAP): approximately 2 times higher
